Test results as given in patent US9833497B2, “Human originated EGF domain proteins and use of the same” (CHENGDU SOURCEBIO LIMITED-LIABILITY COMPANY, priority 2013, dated 2017).

Key:
Type in all cases: cell-based
[1] = system: E. coli DH5α; test: Antibacterial activity: MIC and growth curve against E. coli DH5α in 96-well plate; details: minimal inhibitory concentration against E. coli DH5α; 96-well plate, 5×10^5 CFU/mL, 37° C., judged after 8 h
Method in brief: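 MIC taken as lowest protein level with no bacterial growth, tracked by A600 every 30 min during 37 °C, 175 rpm culture. Two-fold protein series 50-12.5 μg/mL final, triplicate wells, against 5×10^5 CFU/mL of LB-washed mid-log cells.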

[2] = system: E. coli BL21; test: MIC against Gram-negative bacteria: E. coli BL21; details: 5×10^5 CFU/mL
Method in brief: (§1)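 Two-fold serial dilutions of each purified human EGF domain protein, three replicate wells per level, were combined with bacteria at a final 5×10^5 CFU/mL in LB. Cultures were shaken at 175 rpm, 37° C. The MIC was taken as the minimum concentration preventing growth.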

[3] = system: Pseudomonas aeruginosa; test: MIC against Gram-negative bacteria: Pseudomonas aeruginosa; details: 5×10^5 CFU/mL
Method in brief: as §1

[4] = system: Klebsiella pneumonia; test: MIC against Gram-negative bacteria: Klebsiella pneumonia; details: 5×10^5 CFU/mL
Method in brief: as §1

[5] = system: Enterobacter cloacae; test: MIC against Gram-negative bacteria: Enterobacter cloacae; details: 5×10^5 CFU/mL
Method in brief: as §1

[6] = system: Aeromonas hydrophila; test: MIC against Gram-negative bacteria: Aeromonas hydrophila; details: 5×10^5 CFU/mL
Method in brief: as §1

[7] = system: Citrobacter diversus; test: MIC against Gram-negative bacteria: Citrobacter diversus; details: 5×10^5 CFU/mL
Method in brief: as §1

[8] = system: Moraxella catarrhalis; test: MIC against Gram-negative bacteria: Moraxella catarrhalis; details: 5×10^5 CFU/mL
Method in brief: as §1

[9] = system: Proteus mirabilis; test: MIC against Gram-negative bacteria: Proteus mirabilis; details: 5×10^5 CFU/mL
Method in brief: as §1

[10] = system: Proteus vulgaris; test: MIC against Gram-negative bacteria: Proteus vulgaris; details: 5×10^5 CFU/mL
Method in brief: as §1

[11] = system: Serratia marcescens; test: MIC against Gram-negative bacteria: Serratia marcescens; details: 5×10^5 CFU/mL
Method in brief: as §1

[12] = 10 h cultivation at 37° C., two-fold serial dilution
[13] = E. coli BL21, 96-well plate, 37° C., 10 h
[14] = Pseudomonas aeruginosa, 96-well plate, 37° C., 10 h
[15] = Klebsiella pneumonia, 96-well plate, 37° C., 10 h
[16] = Enterobacter cloacae, 96-well plate, 37° C., 10 h
[17] = Aeromonas hydrophila, 96-well plate, 37° C., 10 h
[18] = Citrobacter diversus, 96-well plate, 37° C., 10 h
[19] = Moraxella catarrhalis, 96-well plate, 37° C., 10 h
[20] = Proteus mirabilis, 96-well plate, 37° C., 10 h
[21] = Proteus vulgaris, 96-well plate, 37° C., 10 h
[22] = Serratia marcescens, 96-well plate, 37° C., 10 h

PRT1148 (NINECSSSPCLHGADCEDHINGYVCKCQPGWSGHHCE; listed as Homo sapiens)
12.5 µg/mL: MIC [1] | MIC P. aeruginosa [3, 12] | MIC E. cloacae [5, 12] | MIC A. hydrophila [6, 12] | MIC C. diversus [7, 12] | MIC M. catarrhalis [8, 12] | MIC P. mirabilis [9, 12] | MIC S. marcescens [11, 12]
25 µg/mL: MIC E. coli BL21 [2, 12] | MIC K. pneumonia [4, 12] | MIC P. vulgaris [10, 12]

PRT4 (LDVTCNIKNGRCEQFCKNSADNKVVCSCTEGYRLAENQKSCE; listed as Homo sapiens)
25 µg/mL: MIC [1] | MIC (μg/mL) P. aeruginosa [3, 14] | MIC (μg/mL) K. pneumonia [4, 15] | MIC (μg/mL) A. hydrophila [6, 17] | MIC (μg/mL) M. catarrhalis [8, 19] | MIC (μg/mL) P. mirabilis [9, 20] | MIC (μg/mL) S. marcescens [11, 22]
12.5 µg/mL: MIC (μg/mL) E. cloacae [5, 16] | MIC (μg/mL) C. diversus [7, 18]
50 µg/mL: MIC (μg/mL) E. coli BL21 [2, 13] | MIC (μg/mL) P. vulgaris [10, 21]

PRT734 (NNNPCLENNGGCSHLCFALPGLHTPKCDCAFGTLQSDGKNCA; listed as Homo sapiens)
25 µg/mL: MIC P. aeruginosa ([3]; 96-well plate, 37° C., 10 h) | MIC C. diversus ([7]; 96-well plate, 37° C., 10 h) | MIC P. mirabilis ([9]; 96-well plate, 37° C., 10 h) | MIC P. vulgaris ([10]; 96-well plate, 37° C., 10 h)
50 µg/mL: MIC [1] | MIC K. pneumonia ([4]; 96-well plate, 37° C., 10 h) | MIC A. hydrophila ([6]; 96-well plate, 37° C., 10 h) | MIC S. marcescens ([11]; 96-well plate, 37° C., 10 h)
12.5 µg/mL: MIC E. coli BL21 ([2]; 96-well plate, 37° C., 10 h) | MIC E. cloacae ([5]; 96-well plate, 37° C., 10 h) | MIC M. catarrhalis ([8]; 96-well plate, 37° C., 10 h)

PRT1315 (FGPDCQSVCSCVHGVCNHGPRGDGSCLCFAGYTGPHCD; listed as Homo sapiens)
50 µg/mL: MIC against M. catarrhalis [8, 19] | MIC against P. vulgaris [10, 21]
12.5 µg/mL: MIC against E. coli BL21 [2, 13] | MIC against P. aeruginosa [3, 14] | MIC against A. hydrophila [6, 17] | MIC against C. diversus [7, 18] | MIC against P. mirabilis [9, 20] | MIC against S. marcescens [11, 22]
25 µg/mL: MIC [1] | MIC against E. cloacae [5, 16]
100 µg/mL: MIC against K. pneumonia [4, 15]

PRT1266 (CMNKDHGCSHICKEAPRGSVACECRPGFELAKNQRDC; listed as Homo sapiens)
50 µg/mL: MIC [1] | MIC against K. pneumonia [4, 15] | MIC against P. mirabilis [9, 20] | MIC against S. marcescens [11, 22]
12.5 µg/mL: MIC against E. coli BL21 [2, 13] | MIC against C. diversus [7, 18] | MIC against P. vulgaris [10, 21]
25 µg/mL: MIC against P. aeruginosa [3, 14] | MIC against E. cloacae [5, 16] | MIC against A. hydrophila [6, 17] | MIC against M. catarrhalis [8, 19]
